68 compounds from PubChem BioAssay AID493148 (Sanford-Burnham Center for Chemical Genomics, 2011) can be followed below.

Calls of active or inactive are those of the source. The rule behind the calls is not given here. Some results are limits rather than exact numbers.

One may read the IC50 as the point on the concentration scale where inhibition reaches its midpoint.

For the assay, the target named is Alkaline phosphatase, tissue-nonspecific isozyme (Homo sapiens) (UniProt P05186). Nature of the assay: human TNAP enzyme inhibitors, SAR follow-up, selectivity assay for mouse IAP inhibitor project, biochemical (AID 493148). As to conditions: purified enzyme, CDP-Star luminescence, 30 min.
Alkaline phosphatase, tissue-nonspecific isozyme (Homo sapiens), sequence (P05186 whole entry, looked up): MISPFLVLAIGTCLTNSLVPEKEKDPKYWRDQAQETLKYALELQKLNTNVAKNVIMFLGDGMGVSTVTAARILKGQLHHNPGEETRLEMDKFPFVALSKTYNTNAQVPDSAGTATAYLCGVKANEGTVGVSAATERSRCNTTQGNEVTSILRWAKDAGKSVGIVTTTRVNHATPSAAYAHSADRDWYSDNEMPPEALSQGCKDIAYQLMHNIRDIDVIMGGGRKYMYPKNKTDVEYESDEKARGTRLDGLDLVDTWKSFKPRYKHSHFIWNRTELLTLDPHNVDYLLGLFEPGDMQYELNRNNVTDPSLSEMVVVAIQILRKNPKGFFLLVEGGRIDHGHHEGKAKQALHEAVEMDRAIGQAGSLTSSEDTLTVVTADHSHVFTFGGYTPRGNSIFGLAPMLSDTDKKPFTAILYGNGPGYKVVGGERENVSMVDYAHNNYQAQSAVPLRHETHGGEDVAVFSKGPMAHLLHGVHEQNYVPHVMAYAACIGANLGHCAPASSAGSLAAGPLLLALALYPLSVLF
As for `CC(C)n1cc(CN2CCC(C(=O)Nc3cccc(-c4cccc(F)c4)c3)CC2)cn1`, the IC50 was > 100 µM (inactive).
In the case of `COc1cccc(NC(=S)NCCC(c2ccccc2)c2ccccc2)c1`, the IC50 is > 100 µM (inactive).
Turning to `COc1ccc(C(=O)CSc2n[nH]c(-c3ccccc3)n2)cc1OC`, the IC50 is 34.4 µM.
With `Fc1ccc(NC(=S)NCCC(c2ccccc2)c2ccccc2)cc1Cl` the figure was > 100 µM (inactive); with `Cc1cc(C)cc(NC(=S)NCCC(c2ccccc2)c2ccccc2)c1`, > 100 µM (inactive).
Then `CCn1c(SCC(=O)c2ccc(O)c(O)c2)nnc1-c1ccccc1OC`, with > 100 µM (inactive).
Then `O=[N+]([O-])c1ccc(NC(=S)NCCC(c2ccccc2)c2ccccc2)cc1`, with > 100 µM (inactive); and `Cc1cc(NC(=O)CCNS(=O)(=O)c2ccc3[nH]c(=O)oc3c2)ccc1Br`, with > 100 µM (inactive); and `C=CCn1cc(CN2CCC(C(=O)Nc3cccc(-c4cccc(Cl)c4)c3)CC2)c(C)n1`, with > 100 µM (inactive).
As to `Cc1cc(=O)oc2cc(NC(=S)NCCC(c3ccccc3)c3ccccc3)ccc12`, the IC50 is > 100 µM (inactive).
`CC(C)c1ccccc1NC(=S)NCCC(c1ccccc1)c1ccccc1`: the IC50 is > 100 µM (inactive).
With `Cn1cc(CN2CCC(C(=O)Nc3cccc(-c4cccc(F)c4)c3)CC2)cn1` the figure was > 100 µM (inactive).
With `CCn1cc(CN2CCC(C(=O)Nc3cccc(-c4cccc(OC)c4)c3)CC2)cn1` the figure was > 100 µM (inactive); with `Oc1ccc(-c2csc(Nc3cccc4ccccc34)n2)cc1O`, 6.4 µM.
Then `COc1cc([N+](=O)[O-])ccc1NC(=S)NCCC(c1ccccc1)c1ccccc1`, with > 100 µM (inactive); and `S=C(NCCC(c1ccccc1)c1ccccc1)Nc1cccc(Cl)c1`, with > 100 µM (inactive); and `Fc1ccccc1NC(=S)NCCC(c1ccccc1)c1ccccc1`, with > 100 µM (inactive).
On to `CC(C)n1cc(CN2CCC(C(=O)Nc3cccc(-c4cccc(Cl)c4)c3)CC2)cn1`, for which the IC50 is > 100 µM (inactive).
With `Cc1ccc(NC(=S)NCCC(c2ccccc2)c2ccccc2)cc1` the figure was > 100 µM (inactive); with `S=C(NCCC(c1ccccc1)c1ccccc1)Nc1ccc(Cl)cc1Cl`, > 100 µM (inactive); with `COc1ccc(NC(=S)NCCC(c2ccccc2)c2ccccc2)cc1`, > 100 µM (inactive).
Then `S=C(NCCC(c1ccccc1)c1ccccc1)Nc1ccccc1`, with > 100 µM (inactive); and `COc1cccc(-c2cccc(NC(=O)C3CCN(Cc4ccc(CO)o4)CC3)c2)c1`, with > 100 µM (inactive).
Then `O=S(=O)(Nc1ncccn1)c1ccc(NC(=S)NCCC(c2ccccc2)c2ccccc2)cc1`, with > 100 µM (inactive); and `Cc1ccc(C)c(NC(=S)NCCC(c2ccccc2)c2ccccc2)c1`, with > 100 µM (inactive).
Take `S=C(NCCC(c1ccccc1)c1ccccc1)Nc1ccc(Cl)cc1`: the IC50 is > 100 µM (inactive).
Consider `CCn1nc(C)c(CN2CCC(C(=O)Nc3cccc(-c4cccc(Cl)c4)c3)CC2)c1C`, for which the IC50 was > 100 µM (inactive).
With `CCn1nc(C)c(CN2CCC(C(=O)Nc3cccc(-c4cccc(F)c4)c3)CC2)c1C` the figure was > 100 µM (inactive); with `O=C(CN1C(=O)/C(=C/c2ccco2)SC1=S)Nc1ccc(C(=O)O)cc1`, > 100 µM (inactive); with `FC(F)(F)c1cccc(NC(=S)NCCC(c2ccccc2)c2ccccc2)c1`, > 100 µM (inactive).
Regarding `CC(C)N1CCC(=NNC(=O)c2cc(O)c(O)c(O)c2)CC1`, the IC50 is > 100 µM (inactive).
Consider `Cc1c(CN2CCC(C(=O)Nc3cccc(-c4cccc(Cl)c4)c3)CC2)cnn1C`, for which the IC50 is > 100 µM (inactive).
Turning to `Cc1ccc(NC(=S)NCCC(c2ccccc2)c2ccccc2)cc1C`, the IC50 is > 100 µM (inactive).
Take `Cc1cc(Cl)ccc1NC(=S)NCCC(c1ccccc1)c1ccccc1`: the IC50 was > 100 µM (inactive).
As to `CCc1ccccc1Nc1nc(-c2ccc(O)c(O)c2)cs1`, the IC50 was 11.4 µM.
For `CCN1CCN(S(=O)(=O)c2ccc3[nH]c(=O)oc3c2)CC1`, the IC50 is > 100 µM (inactive).
Turning to `Cc1nn(C)c(Cl)c1CN1CCC(C(=O)Nc2cccc(-c3cccc(F)c3)c2)CC1`, the IC50 was > 100 µM (inactive).
With `C=CCn1cc(CN2CCC(C(=O)Nc3cccc(-c4cccc(F)c4)c3)CC2)c(C)n1` the figure was > 100 µM (inactive).
For the compound `CCOC(=O)c1ccc(NC(=S)NCCC(c2ccccc2)c2ccccc2)cc1`, the IC50 was > 100 µM (inactive).
As for `COCc1ccc(CN2CCC(C(=O)Nc3cccc(-c4cccc(Cl)c4)c3)CC2)o1`, the IC50 is > 100 µM (inactive).
As to `O=C(Nc1cccc(-c2cccc(F)c2)c1)C1CCN(Cc2ccc(CO)o2)CC1`, the IC50 is > 100 µM (inactive).
Then `COC(=O)c1cc(NC(=S)NCCC(c2ccccc2)c2ccccc2)cc(C(=O)OC)c1`, with > 100 µM (inactive); and `Cc1c(Cl)cccc1NC(=S)NCCC(c1ccccc1)c1ccccc1`, with > 100 µM (inactive); and `O=C(Nc1cccc(-c2cccc(Cl)c2)c1)C1CCN(Cc2ccc(CO)o2)CC1`, with > 100 µM (inactive).
As for `CC1(c2ccccc2)CC(C)(C)N(C(=S)Nc2ccccc2)c2ccccc21` (stereo not drawn), the IC50 was > 100 µM (inactive).
Then `CN1CCC(=NNC(=O)c2cc(O)c(O)c(O)c2)CC1`, with > 100 µM (inactive).
For `CN(C)S(=O)(=O)c1cccc(NC(=S)NCCC(c2ccccc2)c2ccccc2)c1`, the IC50 is > 100 µM (inactive).
With `CCCn1ncc(CN2CCC(C(=O)Nc3cccc(-c4cccc(F)c4)c3)CC2)c1C` the figure was > 100 µM (inactive); with `COc1cc(NC(=S)NCCC(c2ccccc2)c2ccccc2)cc(OC)c1`, > 100 µM (inactive); with `NS(=O)(=O)c1ccc(NC(=S)NCCC(c2ccccc2)c2ccccc2)cc1`, > 100 µM (inactive).
Then `COc1cccc(-c2cccc(NC(=O)C3CCN(Cc4ccc(C)o4)CC3)c2)c1`, with > 100 µM (inactive).
For `Cc1ccc(CN2CCC(C(=O)Nc3cccc(-c4cccc(F)c4)c3)CC2)o1`, the IC50 was > 100 µM (inactive).
Then `S=C(NCCC(c1ccccc1)c1ccccc1)Nc1ccc(Nc2ccccc2)cc1`, with > 100 µM (inactive).
With `O=C(Nc1cccc(-c2cccc(Cl)c2)c1)C1CCN(C2CCC2)CC1` the figure was > 100 µM (inactive); with `S=C(NCCC(c1ccccc1)c1ccccc1)Nc1ccc(Cl)c(Cl)c1`, > 100 µM (inactive); with `Cc1cccc(NC(=S)NCCC(c2ccccc2)c2ccccc2)c1C`, > 100 µM (inactive).
With `COc1ccc(Cl)cc1Nc1nc(-c2ccc(O)c(O)c2)cs1` the figure was > 100 µM (inactive); with `O=C(CN1C(=O)/C(=C/c2ccco2)SC1=S)Nc1cccc(C(=O)O)c1`, > 100 µM (inactive); with `CCn1ncc(CN2CCC(C(=O)Nc3cccc(-c4cccc(F)c4)c3)CC2)c1C`, > 100 µM (inactive).
On to `Cc1nn(C(C)C)c(C)c1CN1CCC(C(=O)Nc2cccc(-c3cccc(F)c3)c2)CC1`, for which the IC50 was > 100 µM (inactive).
With `CCn1cc(CN2CCC(C(=O)Nc3cccc(-c4cccc(F)c4)c3)CC2)cn1` the figure was > 100 µM (inactive); with `CCn1cc(CN2CCC(C(=O)Nc3cccc(-c4cccc(OC)c4)c3)CC2)c(C)n1`, > 100 µM (inactive); with `CCn1cc(CN2CCC(C(=O)Nc3cccc(-c4cccc(Cl)c4)c3)CC2)cn1`, > 100 µM (inactive).
With `O=C(CN1C(=O)/C(=C\c2ccco2)SC1=S)Nc1ccccc1C(=O)O` the figure was > 100 µM (inactive).
With `Cc1ccc(NC(=O)CCNS(=O)(=O)c2ccc3[nH]c(=O)oc3c2)cc1C` the figure was > 100 µM (inactive); with `Cn1cc(CN2CCC(C(=O)Nc3cccc(-c4cccc(Cl)c4)c3)CC2)cn1`, > 100 µM (inactive); with `COc1ccc(Cl)cc1NC(=S)NCCC(c1ccccc1)c1ccccc1`, > 100 µM (inactive).
`Cc1c(Cl)cccc1Nc1nc(-c2ccc(O)c(O)c2)cs1`: the IC50 is > 100 µM (inactive).
